Test results: patent publication US9469617B2, “Molecules having certain pesticidal utilities, and intermediates, compositions, and processes related thereto” (priority 2014, dated 2016)
Structures can show the parent of a compound that is named as a salt. Where two headings read alike, the source gives them in different places.

Assays:
Type in all cases: in vivo
[1] = test system: Beet Armyworm (BAW) (Spodoptera exigua); experiment: Bioassay on Beet Armyworm (BAW), 128-well diet tray assay; conditions: 168 h, read-out: BAW % Control (or Mortality) rating
Procedure: (§1) Certain molecules disclosed in this document were tested against BAW and CL using procedures described in the following examples. In the reporting of the results, the “BAW & CL Rating Table” was used (See Table Section).
Bioassays on BAW were conducted using a 128-well diet tray assay. one to five second instar BAW larvae were placed in each well (3 mL) of the diet tray that had been previously filled with 1 mL of artificial diet to which 50 μg/cm^2 of the test compound (dissolved in 50 μL of 90:10 acetone-water mixture) had been applied (to each of eight wells) and then allowed to dry. Trays were covered with a clear self-adhesive cover, and held at 25° C., 14:10 light-dark for five to seven days. Percent mortality was recorded for the larvae in each well; activity in the eight wells was then averaged. The results are indicated in the tables entitled “Table ABC: Assay Results” and “Table ABCD: Assay Results” (See Table Section).

[2] = test system: Cabbage Looper (CL) (Trichoplusia ni); experiment: Bioassay on Cabbage Looper (CL), 128-well diet tray assay; conditions: 168 h, read-out: CL % Control (or Mortality) rating
Procedure: as §1
Bioassays on CL were conducted using a 128-well diet tray assay. One to five second instar CL larvae were placed in each well (3 mL) of the diet tray that had been previously filled with 1 mL of artificial diet to which 50 μg/cm^2 of the test compound (dissolved in 50 μL of 90:10 acetone-water mixture) had been applied (to each of eight wells) and then allowed to dry. Trays were covered with a clear self-adhesive cover, and held at 25° C., 14:10 light-dark for five to seven days. Percent mortality was recorded for the larvae in each well; activity in the eight wells was then averaged. The results are indicated in the table entitled “Table ABC: Assay Results” and “Table ABCD: Assay Results” (See Table Section).

[3] = test system: Yellow Fever Mosquito (YFM) (Aedes aegypti); experiment: Bioassay on Yellow Fever Mosquito (YFM) larvae, 96-well plate; conditions: about 1 day-old larvae, master plate 4000 ppm in DMSO diluted, scored on mortality after 3 days
Procedure: Certain molecules disclosed in this document were tested against YFM using procedures described in the following paragraph. In the reporting of the results, the “GPA & YFM Rating Table” was used (See Table Section).
Master plates containing 400 μg of a molecule dissolved in 100 μL of dimethyl sulfoxide (DMSO) (equivalent to a 4000 ppm solution) are used. A master plate of assembled molecules contains 15 μL per well. To this plate, 135 μL of a 90:10 water:acetone mixture is added to each well. A robot (Biomek® NXP Laboratory Automation Workstation) is programmed to dispense 15 μL aspirations from the master plate into an empty 96-well shallow plate (“daughter” plate). There are 6 reps (“daughter” plates) created per master. The created daughter plates are then immediately infested with YFM larvae.
The day before plates are to be treated, mosquito eggs are placed in Millipore water containing liver powder to begin hatching (4 g. into 400 mL). After the daughter plates are created using the robot, they are infested with 220 μL of the liver powder/larval mosquito mixture (about 1 day-old larvae). After plates are infested with mosquito larvae, a non-evaporative lid is used to cover the plate to reduce drying. Plates are held at room temperature for 3 days prior to grading. After 3 days, each well is observed and scored based on mortality.

[4] = Table ABCD, 50 μg/cm^2 on artificial diet, second instar larvae, five to seven days, 25° C.
[5] = Table ABC, 50 μg/cm^2 on artificial diet, second instar larvae, five to seven days, 25° C.

SMILES	YFM % Control (or Mortality) rating ([3]; Table ABCD)	mortality at 50 µg/cm2 [1, 5] [%]	mortality at 50 µg/cm2 [2, 5] [%]	other results
CC(C)(C)OC(=O)NC1Cc2ccc(-c3ncn(-c4ccc(OC(F)(F)C(F)(F)F)cc4)n3)cc2C1 (centres unmarked) [C2, tert-butyl (5-(1-(4-(perfluoroethoxy)phenyl)-1H-1,2,4-triazol-3-yl)-2,3-dihydro-1H-inden-2-yl)carbamate]				mortality at 50 µg/cm2 [1, 4]: 50 to 100%; mortality at 50 µg/cm2 [2, 4]: 50 to 100%
NC1Cc2ccc(-c3ncn(-c4ccc(OC(F)(F)F)cc4)n3)cc2C1 (centres unmarked) [C3, 5-(1-(4-(trifluoromethoxy)phenyl)-1H-1,2,4-triazol-3-yl)-2,3-dihydro-1H-inden-2-amine dihydrochloride]	A (80-100)			mortality at 50 µg/cm2 [1]: 50 to 100%; mortality at 50 µg/cm2 [2]: 50 to 100%
NC1Cc2ccc(-c3ncn(-c4ccc(OC(F)(F)F)cc4)n3)cc2C1.O=C(O)C(F)(F)F (centres unmarked) [C4, 5-(1-(4-(trifluoromethoxy)phenyl)-1H-1,2,4-triazol-3-yl)-2,3-dihydro-1H-inden-2-amine 2,2,2-trifluoroacetate]	D (No activity noticed in this bioassay)			
C=C(C)c1ccc(Cl)cc1[N+](=O)[O-] [C8, 4-Chloro-2-nitro-1-(prop-1-en-2-yl)benzene]	D (No activity noticed in this bioassay)			
CCc1ccc(C)cc1NC(=S)NC(=O)c1ccccc1 [C17, N-((2-Ethyl-5-methylphenyl)carbamothioyl)benzamide]	D (No activity noticed in this bioassay)			
COc1ccc(C(C)C)c(NC(=S)NC(=O)c2ccccc2)c1 [C18, N-((2-Isopropyl-5-methoxyphenyl)carbamothioyl)benzamide]	D (No activity noticed in this bioassay)			
CCCc1ccc(C)cc1NC(N)=S [C20, 1-(5-methyl-2-propylphenyl)thiourea]	D (No activity noticed in this bioassay)			
CCc1ccc(C)cc1NC(N)=S [C22, 1-(2-Ethyl-5-methylphenyl)thiourea]	D (No activity noticed in this bioassay)			
Cc1ccc(C(C)C)c(N2C(=N)SCC2=O)c1 [C29, 2-imino-3-(2-isopropyl-5-methylphenyl)thiazolidin-4-one]	B (More than 0-Less than 80)			mortality at 50 µg/cm2 [1, 4]: 0 to 50%; mortality at 50 µg/cm2 [2, 4]: 50 to 100%
Cc1ccc(C(C)C)c(N2C(=O)CS/C2=N\C(=O)Oc2ccc([N+](=O)[O-])cc2)c1 [C30, (Z)-4-nitrophenyl (3-(2-isopropyl-5-methylphenyl)-4-oxothiazolidin-2-ylidene)carbamate]	D (No activity noticed in this bioassay)			mortality at 50 µg/cm2 [1]: 0%
Cc1ccc(C(C)C)c(NC(=S)NC(=O)NC2Cc3ccc(-c4ncn(-c5ccc(OC(F)(F)F)cc5)n4)cc3C2)c1 (centres unmarked) [F1, 1-[(2-isopropyl-5-methyl-phenyl)carbamothioyl]-3-[5-[1-[4-(trifluoromethoxy)phenyl]-1,2,4-triazol-3-yl]indan-2-yl]urea]		50 to 100	50 to 100	YFM % Control (or Mortality) rating ([3]; Table ABC): A (80-100)
Cc1ccc(C(C)C)c(NC(=S)NC(=O)NC2Cc3ccc(-c4ncn(-c5ccc(OC(F)(F)C(F)(F)F)cc5)n4)cc3C2)c1 (centres unmarked) [F3, 1-[(2-isopropyl-5-methyl-phenyl)carbamothioyl]-3-[5-[1-[4-(1,1,2,2,2-pentafluoroethoxy)phenyl]-1,2,4-triazol-3-yl]indan-2-yl]urea]		50 to 100	50 to 100	YFM % Control (or Mortality) rating ([3]; Table ABC): A (80-100)
CCc1ccc(C)cc1NC(=S)NC(=O)NC1Cc2ccc(-c3ncn(-c4ccc(OC(F)(F)F)cc4)n3)cc2C1 (centres unmarked) [F5, 1-[(2-Ethyl-5-methyl-phenyl)carbamothioyl]-3-[5-[1-[4-(trifluoromethoxy)phenyl]-1,2,4-triazol-3-yl]indan-2-yl]urea]		50 to 100	50 to 100	
CCc1cccc(C)c1NC(=S)NC(=O)NC1Cc2ccc(-c3ncn(-c4ccc(OC(F)(F)F)cc4)n3)cc2C1 (centres unmarked) [F6, 1-[(2-Ethyl-6-methyl-phenyl)carbamothioyl]-3-[5-[1-[4-(trifluoromethoxy)phenyl]-1,2,4-triazol-3-yl]indan-2-yl]urea]		50 to 100	50 to 100	
CCc1ccccc1NC(=S)NC(=O)NC1Cc2ccc(-c3ncn(-c4ccc(OC(F)(F)F)cc4)n3)cc2C1 (centres unmarked) [F7, 1-[(2-Ethylphenyl)carbamothioyl]-3-[5-[1-[4-(trifluoromethoxy)phenyl]-1,2,4-triazol-3-yl]indan-2-yl]urea]		50 to 100	50 to 100	
CCCc1ccc(C)cc1NC(=S)NC(=O)NC1Cc2ccc(-c3ncn(-c4ccc(OC(F)(F)F)cc4)n3)cc2C1 (centres unmarked) [F8, 1-[(5-Methyl-2-propyl-phenyl)carbamothioyl]-3-[5-[1-[4-(trifluoromethoxy)phenyl]-1,2,4-triazol-3-yl]indan-2-yl]urea]		50 to 100	50 to 100	
CCc1ccc(C)cc1N1C(=O)CS/C1=N\C(=O)NC1Cc2ccc(-c3ncn(-c4ccc(OC(F)(F)F)cc4)n3)cc2C1 (centres unmarked) [F9, (Z)-1-(3-(2-Ethyl-5-methylphenyl)-4-oxothiazolidin-2-ylidene)-3-(5-(1-(4-(trifluoromethoxy)phenyl)-1H-1,2,4-triazol-3-yl)-2,3-dihydro-1H-inden-2-yl)urea]		50 to 100	50 to 100	YFM % Control (or Mortality) rating ([3]; Table ABC): A (80-100)
CCc1cccc(C)c1N1C(=O)CS/C1=N\C(=O)NC1Cc2ccc(-c3ncn(-c4ccc(OC(F)(F)F)cc4)n3)cc2C1 (centres unmarked) [F10, (Z)-1-(3-(2-Ethyl-6-methylphenyl)-4-oxothiazolidin-2-ylidene)-3-(5-(1-(4-(trifluoromethoxy)phenyl)-1H-1,2,4-triazol-3-yl)-2,3-dihydro-1H-inden-2-yl)urea]		50 to 100	50 to 100	YFM % Control (or Mortality) rating ([3]; Table ABC): A (80-100)
CC(C)c1ccccc1NC(=S)NC(=O)NC1Cc2ccc(-c3ncn(-c4ccc(OC(F)(F)F)cc4)n3)cc2C1 (centres unmarked) [F14, 1-[(2-Isopropylphenyl)carbamothioyl]-3-[5-[1-[4-(trifluoromethoxy)phenyl]-1,2,4-triazol-3-yl]indan-2-yl]urea]		50 to 100	50 to 100	
CC(C)c1ccccc1N1C(=O)CCS/C1=N\C(=O)NC1Cc2ccc(-c3ncn(-c4ccc(OC(F)(F)F)cc4)n3)cc2C1 (centres unmarked) [FA4, (Z)-1-(3-(2-isopropylphenyl)-4-oxo-1,3-thiazinan-2-ylidene)-3-(5-(1-(4-(trifluoromethoxy)phenyl)-1H-1,2,4-triazol-3-yl)-2,3-dihydro-1H-inden-2-yl)urea]		50 to 100	50 to 100	
Cc1ccc(C(C)C)c(N2/C(=N/C(=O)NC3Cc4ccc(-c5ncn(-c6ccc(OC(F)(F)F)cc6)n5)cc4C3)SCCC2C)c1 (centres unmarked) [P16, (Z)-1-(3-(2-Isopropyl-5-methylphenyl)-4-methyl-1,3-thiazinan-2-ylidene)-3-(5-(1-(4-(trifluoromethoxy)phenyl)-1H-1,2,4-triazol-3-yl)-2,3-dihydro-1H-inden-2-yl)urea]		50 to 100	50 to 100	
Cc1ccc(C(C)C)c(N2C(=O)CCS/C2=N\C(=O)NC2Cc3ccc(-c4ncn(-c5ccc(OC(F)(F)F)cc5)n4)cc3C2)c1 (centres unmarked) [P17, (Z)-1-(3-(2-Isopropyl-5-methylphenyl)-4-oxo-1,3-thiazinan-2-ylidene)-3-(5-(1-(4-(trifluoromethoxy)phenyl)-1H-1,2,4-triazol-3-yl)-2,3-dihydro-1H-inden-2-yl)urea]		50 to 100	50 to 100	
